Results published in patent US11447533B2, “Antimicrobial and anticancer peptides and conjugates and compositions, methods, articles and kits relating thereto” (George Mason Research Foundation, Inc., priority 2018, dated 2022).

System: primary lung epithelium cells
Experiment: Cytotoxicity (Alamar blue)
Type: cell-based, human
Details: ~16 hours (overnight), reduced serum conditions
Protocol: FIGS. 11A-11B are graphs showing cytotoxicity against primary lung epithelium cells in serum-free condition. Cells were seeded in complete growth medium (Minimal essential medium supplemented with 10% fetal bovine serum) at near-confluence into a 96-well plate and allowed to settle for 24-hours. Media was then replaced to OptiMEM I reduced serum medium containing peptide or vehicle alone (DBPS) and cells were incubated overnight (16 hours). A resazurin based dye (Alamar blue) was added directly to media and conversion of resazurin to resorufin was evaluated following two hours. % Survival represents the proportion of viable cells in peptide treated cells relative to cells treated with vehicle alone. […] Each peptide was tested in triplicate.
FIG. 12 is a graph showing comparison of toxicities against Lung Primary Epithelial cells and Lung Cancerous Epithelial Cells, derived from H358 cell-line. […] Each peptide was tested in triplicate.
Cytotoxicity. Cells were seeded in complete growth medium (Minimal Essential Medium, MEMα, supplemented with 10% Fetal Bovine Serum) into a culture-treated 96-well plate at a density of 25000 cells per well. After 24 hours, culture media was aspirated and replaced with media containing the selected peptide. No-serum experiments were conducted in Opti-MEM I reduced serum media (ThermoFisher, 31985062) and 10% serum experiments were performed in complete growth medium. In all cases, DBPS was used as a vehicle only control and buffer to serially dilute the peptides. After exposure to the peptides or vehicle-alone for the defined period, Alamar blue dye (resazurin) was added directly to the media and allowed to incubate for two hours. Following incubation, A570/A600 measurements were made to calculate reduction of resazurin dye to resorufin. A ratio of reduction in treated versus untreated cells was calculated in order to determine overall cell viability. The human cells were always maintained in a 37° C. incubator under 5% CO2.

## CC[C@H](C)[C@H](NC(=O)CN)C(=O)NCC(=O)N[C@@H](C)C(=O)N[C@H](C(=O)N[C@@H](CC(C)C)C(=O)N[C@@H](CCCCN)C(=O)N[C@H](C(=O)N[C@@H](CC(C)C)C(=O)N[C@H](C(=O)N[C@H](C(=O)NCC(=O)N[C@@H](CC(C)C)C(=O)N1CCC[C@H]1C(=O)N[C@@H](C)C(=O)N[C@@H](CC(C)C)C(=O)N[C@H](C(=O)N[C@@H](CO)C(=O)N[C@@H](Cc1c[nH]c2ccccc12)C(=O)N[C@H](C(=O)N[C@@H](CCCCN)C(=O)N[C@@H](CCCNC(=N)N)C(=O)N[C@@H](CCCCN)C(=O)N[C@@H](CCCNC(=N)N)C(=O)N[C@@H](CCC(N)=O)C(=O)N[C@@H](CCC(N)=O)C(N)=O)[C@@H](C)CC)[C@@H](C)CC)[C@@H](C)O)[C@@H](C)O)C(C)C)C(C)C [melittin]
  cytotoxicity, in words: killed the cells at the highest degree
